How the values were obtained:
Format in all cases: in vivo, Gossypium hirsutum
[1] = system: cotton event pDAB4468.19.10.3; experiment: Tolerance to triclopyr and fluroxypyr in greenhouse trials (percent visual injury); settings: for % Injury: cotton event, 3 leaf stage, greenhouse
Experimental: (§1) The tolerance of cotton event pDAB4468.19.10.3 to post-emergence applications of the pyridyloxyacetic acid herbicides, triclopyr and fluroxypyr, was studied in greenhouse trials. Herbicide tolerance was assessed following a single post-emergence application of triclopyr or fluroxypyr. Seed from cotton event pDAB4468.19.10.3 were heat treated in a water bath at 82.5° C. for 1 minute and then planted in metro mix 360 media and grown in a greenhouse. The temperatures in the greenhouse averaged 27° C. and the photoperiod was set at 16 hours of light and eight hours of dark, with maximum light intensity. Plants were allowed to grow until the 3 leaf stage of development and a non-randomized study was conducted with three replications and three treatments for each herbicide. Plants were sprayed in a track sprayer calibrated to deliver 187 L/ha of the commercial formulations of triclopyr (Garlon 4TM, Dow AgroSciences, Indianapolis, Ind.) and fluroxypyr ([…], Dow AgroSciences, Indianapolis, Ind.). A non-transformed Coker 310 variety of cotton was used as a negative control.

[2] = system: non-transformed Coker 310 variety of cotton; experiment: Triclopyr and fluroxypyr greenhouse trials, negative control plants (percent visual injury); settings: 3 leaf stage
Experimental: as §1

[3] = system: cotton event pDAB4468.19.10.3 (aad-12); experiment: Tolerance to butanoic acids of triclopyr and fluroxypyr in greenhouse trials (% injury); settings: 2-3 leaf stage
Experimental: (§2) Herbicide tolerance was assessed following a single post-emergence application of the two molecules. Seed from cotton event pDAB4468.19.10.3 were heat treated in a water bath at 82.5° C. for 1 minute and then planted in metro mix 360 media and grown in a greenhouse. The temperatures in the greenhouse averaged 27° C. and the photoperiod was set at 16 hours of light and eight hours of dark, with maximum light intensity. Plants were allowed to grow until the 2-3 leaf stage of development and a non-randomized study was conducted with four replications and three treatments for each herbicide. […] In addition, a crop oil concentrate was added to a final concentration of 1.25%. Plants were sprayed in a track sprayer calibrated to deliver 187 L/ha of the formulated technical material. A non-transformed Coker 310 variety of cotton was used as a negative control.

[4] = system: non-transformed Coker 310 variety of cotton (WT); experiment: Butanoic acids of triclopyr and fluroxypyr greenhouse trials, negative control plants (% injury); settings: 2-3 leaf stage
Experimental: as §2

Nc1c(Cl)c(F)nc(OCC(=O)O)c1Cl [Fluroxypyr, fluroxypyr]
% Injury ([1]; 70 g ae/ha, 3 DAA): 0.5 e %
% Injury ([1]; 70 g ae/ha, 11 DAA): 2.3 b %
% Injury ([1]; 140 g ae/ha, 3 DAA): 0.5 e %
% Injury ([1]; 140 g ae/ha, 11 DAA): 2.5 b %
% Injury ([1]; 280 g ae/ha, 3 DAA): 6.5 d %
% Injury ([1]; 280 g ae/ha, 11 DAA): 6.3 a %
herbicide level to which the event provides tolerance ([1]; by 3 DAA): up to 280 g ae/ha
% Injury ([2]; 70 g ae/ha, 3 DAA): 11.3 c %
% Injury ([2]; 70 g ae/ha, 11 DAA): 43.8 ab %
% Injury ([2]; 140 g ae/ha, 3 DAA): 27.3 b %
% Injury ([2]; 140 g ae/ha, 11 DAA): 36.3 b %
% Injury ([2]; 280 g ae/ha, 3 DAA): 33.3 a %
% Injury ([2]; 280 g ae/ha, 11 DAA): 43.8 ab %
% Injury ([3]; 140 g ai/ha, 1 DAA): 21.5a %
% Injury ([3]; 140 g ai/ha, 3 DAA): 8.8c %
% Injury ([3]; 140 g ai/ha, 6 DAA): 7.8b %
% Injury ([3]; 140 g ai/ha, 6 HAA): 19a %
% Injury ([3]; 140 g ai/ha, 14 DAA): 21.3ab %
% Injury ([3]; 280 g ai/ha, 1 DAA): 19.8a %
% Injury ([3]; 280 g ai/ha, 3 DAA): 15.3b %
% Injury ([3]; 280 g ai/ha, 6 DAA): 11.5a %
% Injury ([3]; 280 g ai/ha, 6 HAA): 14a %
% Injury ([3]; 280 g ai/ha, 14 DAA): 17.5b %
% Injury ([3]; 560 g ai/ha, 1 DAA): 21.5a %
% Injury ([3]; 560 g ai/ha, 3 DAA): 21.3a %
% Injury ([3]; 560 g ai/ha, 6 DAA): 14.3a %
% Injury ([3]; 560 g ai/ha, 6 HAA): 17a %
% Injury ([3]; 560 g ai/ha, 14 DAA): 25a %
% Injury ([4]; 140 g ai/ha, 1 DAA): 24.3a %
% Injury ([4]; 140 g ai/ha, 3 DAA): 32.5bc %
% Injury ([4]; 140 g ai/ha, 6 DAA): 38.8a %
% Injury ([4]; 140 g ai/ha, 6 HAA): 23.8a %
% Injury ([4]; 140 g ai/ha, 14 DAA): 60ab %
% Injury ([4]; 280 g ai/ha, 1 DAA): 25a %
% Injury ([4]; 280 g ai/ha, 3 DAA): 37.5ab %
% Injury ([4]; 280 g ai/ha, 6 DAA): 38.8a %
% Injury ([4]; 280 g ai/ha, 6 HAA): 22.5ab %
% Injury ([4]; 280 g ai/ha, 14 DAA): 65ab %
% Injury ([4]; 560 g ai/ha, 1 DAA): 23.5a %
% Injury ([4]; 560 g ai/ha, 3 DAA): 38.8a %
% Injury ([4]; 560 g ai/ha, 6 DAA): 41.3a %
% Injury ([4]; 560 g ai/ha, 6 HAA): 22.5ab %
% Injury ([4]; 560 g ai/ha, 14 DAA): 67.5a %

Nc1c(Cl)c(F)nc(OCCCC(=O)O)c1Cl [Fluroxypyr-b, fluroxypyr-B]
% Injury ([3]; 140 g ai/ha, 1 DAA): 3b %
% Injury ([3]; 140 g ai/ha, 3 DAA): 2d %
% Injury ([3]; 140 g ai/ha, 6 DAA): 2c %
% Injury ([3]; 140 g ai/ha, 6 HAA): 6.5b %
% Injury ([3]; 140 g ai/ha, 14 DAA): 0c %
% Injury ([3]; 280 g ai/ha, 1 DAA): 2b %
% Injury ([3]; 280 g ai/ha, 3 DAA): 2.3d %
% Injury ([3]; 280 g ai/ha, 6 DAA): 2.8c %
% Injury ([3]; 280 g ai/ha, 6 HAA): 7.8b %
% Injury ([3]; 280 g ai/ha, 14 DAA): 0c %
% Injury ([3]; 560 g ai/ha, 1 DAA): 3.5b %
% Injury ([3]; 560 g ai/ha, 3 DAA): 2d %
% Injury ([3]; 560 g ai/ha, 6 DAA): 2.8c %
% Injury ([3]; 560 g ai/ha, 6 HAA): 8b %
% Injury ([3]; 560 g ai/ha, 14 DAA): 2c %
% Injury ([4]; 140 g ai/ha, 1 DAA): 21.8a %
% Injury ([4]; 140 g ai/ha, 3 DAA): 32.5bc %
% Injury ([4]; 140 g ai/ha, 6 DAA): 37.5a %
% Injury ([4]; 140 g ai/ha, 6 HAA): 17.8b %
% Injury ([4]; 140 g ai/ha, 14 DAA): 56.3b %
% Injury ([4]; 280 g ai/ha, 1 DAA): 24.3a %
% Injury ([4]; 280 g ai/ha, 3 DAA): 33.8bc %
% Injury ([4]; 280 g ai/ha, 6 DAA): 41.3a %
% Injury ([4]; 280 g ai/ha, 6 HAA): 21.3ab %
% Injury ([4]; 280 g ai/ha, 14 DAA): 62.5ab %
% Injury ([4]; 560 g ai/ha, 1 DAA): 22.3a %
% Injury ([4]; 560 g ai/ha, 3 DAA): 31.3c %
% Injury ([4]; 560 g ai/ha, 6 DAA): 41.3a %
% Injury ([4]; 560 g ai/ha, 6 HAA): 20ab %
% Injury ([4]; 560 g ai/ha, 14 DAA): 61.3ab %

O=C(O)COc1nc(Cl)c(Cl)cc1Cl [Triclopyr, triclopyr]
% Injury ([1]; 140 g ae/ha, 3 DAA): 13.0 c %
% Injury ([1]; 140 g ae/ha, 11 DAA): 3.5 b %
% Injury ([1]; 280 g ae/ha, 3 DAA): 16.5 b %
% Injury ([1]; 280 g ae/ha, 11 DAA): 3.3 b %
% Injury ([1]; 560 g ae/ha, 3 DAA): 19.5 a %
% Injury ([1]; 560 g ae/ha, 11 DAA): 3.3 b %
% Injury ([2]; 140 g ae/ha, 3 DAA): 33.8 a %
% Injury ([2]; 140 g ae/ha, 11 DAA): 36.3 b %
% Injury ([2]; 280 g ae/ha, 3 DAA): 33.8 a %
% Injury ([2]; 280 g ae/ha, 11 DAA): 40.0 ab %
% Injury ([2]; 560 g ae/ha, 3 DAA): 36.3 a %
% Injury ([2]; 560 g ae/ha, 11 DAA): 48.8 a %
% Injury ([3]; 140 g ai/ha, 1 DAA): 8.8a %
% Injury ([3]; 140 g ai/ha, 3 DAA): 2a %
% Injury ([3]; 140 g ai/ha, 6 DAA): 2.8a %
% Injury ([3]; 140 g ai/ha, 6 HAA): 19.5a %
% Injury ([3]; 140 g ai/ha, 14 DAA): 0a %
% Injury ([3]; 280 g ai/ha, 1 DAA): 8a %
% Injury ([3]; 280 g ai/ha, 3 DAA): 1.8a %
% Injury ([3]; 280 g ai/ha, 6 DAA): 0.5a %
% Injury ([3]; 280 g ai/ha, 6 HAA): 15.8a %
% Injury ([3]; 280 g ai/ha, 14 DAA): 0a %
% Injury ([3]; 560 g ai/ha, 1 DAA): 9.5a %
% Injury ([3]; 560 g ai/ha, 3 DAA): 3.5a %
% Injury ([3]; 560 g ai/ha, 6 DAA): 3.5a %
% Injury ([3]; 560 g ai/ha, 6 HAA): 17.3a %
% Injury ([3]; 560 g ai/ha, 14 DAA): 0a %
% Injury ([4]; 140 g ai/ha, 1 DAA): 24.3a %
% Injury ([4]; 140 g ai/ha, 3 DAA): 30a %
% Injury ([4]; 140 g ai/ha, 6 DAA): 33.8a %
% Injury ([4]; 140 g ai/ha, 6 HAA): 20.8a %
% Injury ([4]; 140 g ai/ha, 14 DAA): 56.3ab %
% Injury ([4]; 280 g ai/ha, 1 DAA): 23a %
% Injury ([4]; 280 g ai/ha, 3 DAA): 32.5a %
% Injury ([4]; 280 g ai/ha, 6 DAA): 33.8a %
% Injury ([4]; 280 g ai/ha, 6 HAA): 20.3a %
% Injury ([4]; 280 g ai/ha, 14 DAA): 60ab %
% Injury ([4]; 560 g ai/ha, 1 DAA): 24.5a %
% Injury ([4]; 560 g ai/ha, 3 DAA): 32.5a %
% Injury ([4]; 560 g ai/ha, 6 DAA): 35a %
% Injury ([4]; 560 g ai/ha, 6 HAA): 21.8a %
% Injury ([4]; 560 g ai/ha, 14 DAA): 67.5a %

O=C(O)CCCOc1nc(Cl)c(Cl)cc1Cl [Triclopyr-b, triclopyr-B]
% Injury ([3]; 140 g ai/ha, 1 DAA): 0.5b %
% Injury ([3]; 140 g ai/ha, 3 DAA): 1a %
% Injury ([3]; 140 g ai/ha, 6 DAA): 1.5a %
% Injury ([3]; 140 g ai/ha, 6 HAA): 3.8c %
% Injury ([3]; 140 g ai/ha, 14 DAA): 0a %
% Injury ([3]; 280 g ai/ha, 1 DAA): 2b %
% Injury ([3]; 280 g ai/ha, 3 DAA): 2a %
% Injury ([3]; 280 g ai/ha, 6 DAA): 2.8a %
% Injury ([3]; 280 g ai/ha, 6 HAA): 5.3c %
% Injury ([3]; 280 g ai/ha, 14 DAA): 0a %
% Injury ([3]; 560 g ai/ha, 1 DAA): 2.8b %
% Injury ([3]; 560 g ai/ha, 3 DAA): 3.5a %
% Injury ([3]; 560 g ai/ha, 6 DAA): 4.3a %
% Injury ([3]; 560 g ai/ha, 6 HAA): 8.5b %
% Injury ([3]; 560 g ai/ha, 14 DAA): 0a %
% Injury ([4]; 140 g ai/ha, 1 DAA): 20.5a %
% Injury ([4]; 140 g ai/ha, 3 DAA): 26.7a %
% Injury ([4]; 140 g ai/ha, 6 DAA): 25b %
% Injury ([4]; 140 g ai/ha, 6 HAA): 12.8b %
% Injury ([4]; 140 g ai/ha, 14 DAA): 47.5b %
% Injury ([4]; 280 g ai/ha, 1 DAA): 21.5a %
% Injury ([4]; 280 g ai/ha, 3 DAA): 27.5a %
% Injury ([4]; 280 g ai/ha, 6 DAA): 33.8a %
% Injury ([4]; 280 g ai/ha, 6 HAA): 7.3b %
% Injury ([4]; 280 g ai/ha, 14 DAA): 57.5ab %
% Injury ([4]; 560 g ai/ha, 1 DAA): 18.8a %
% Injury ([4]; 560 g ai/ha, 3 DAA): 33.8a %
% Injury ([4]; 560 g ai/ha, 6 DAA): 35a %
% Injury ([4]; 560 g ai/ha, 6 HAA): 8.3b %
% Injury ([4]; 560 g ai/ha, 14 DAA): 51.3ab %

From US10501752B2, “Herbicide tolerant cotton event pDAB4468.19.10.3” (Dow AgroSciences LLC, priority 2012, dated 2019)
